US20240156901A1, “GAL3BP POLYPEPTIDE COMPOSITIONS AND METHODS FOR TREATMENT OF CANCER AND DETERMINING TREATMENT RESPONSIVENESS” (UNIVERSITY OF PITTSBURGH-OF THE COMMONWEALTH SYSTEM OF …, priority 2021, published 2024)
Values belong to the compound of their own block, whether it stands above or below them.

Legend:
CHI3L1 secretion = assay: ELISA of secreted CHI3L1 in conditioned medium of GBM neurosphere lines; assay type: cell-based, human; conditions: two GBM neurosphere lines
Procedure: Secreted CHI3L1 protein in the cell culture supernatant was measured by using the Quantikine Human CHI3L1 Immunoassay (R&D Systems, Cat #DC3L10). CHI3L1 content in the conditioned media was quantified per million cells and no CHI3L1 was detected in DMEM or NSC medium supplemented with EGF and bFGF.

Gal3-CHI3L1 interaction = Gal3-CHI3L1 interaction (Homo sapiens, UniProt P17931); conditions: TS603-V5-CHI3L1 cells; 10 μM for 24 hours
Procedure: (§1) TS603 cells overexpressing CHI3L1 with V5 tag (TS603 CHI3L1_V5_OE) or THP-1 cells treated with the peptides were collected and protein-protein interaction was crosslinked with 2 mM Dithiobis (succinimidyl propionate, DSP). Membrane proteins were extracted with the Membrane Protein Extraction Kit (ThermoFisher, Cat #89842) and ˜500 μg of protein was used for Co-IP assay by the Co-Immunoprecipitation Kit (ThermoFisher, Cat #26149). For mass spectrometry, 10 μg of each of the TS603 CHI3L1_V5_OE Co-IP samples were separated in a 12% SDS-PAGE gel and analyzed by MS at the University of Pittsburgh Biomedical MS Center.
(§2) To confirm Co-IP experiments in TS603 cells by immunoblotting, the magnetic beads of protein G (Bio-Rad, Cat #161-4023) were used following the manufacturer's protocol. […] For in vivo THP-1 cell or in vitro recombinant protein Co-IP experiments, additional following antibodies were used: Mouse anti-CHI3L1 (Santa Cruz Biotechnology, Cat #SC-393590), Rat anti-Galectin-3 (Santa Cruz Biotechnology, Cat #SC-23938), anti-Galectin-3BP (Santa Cruz Biotechnology, Cat #SC-374541), Rabbit anti-CHI3L1 (Cell Signaling Technology, Cat #47066), and Rat IgG (BioXCell, Cat #BE0090).

Gal3-Gal3BP interaction = Gal3-Gal3BP interaction (Homo sapiens, UniProt P17931); conditions: TS603-V5-CHI3L1 cells; 10 μM for 24 hours
Procedure: as §1, §2

GL261-CHI3L1 glioma = assay: Flow cytometry of immune cell populations in GL261-CHI3L1 glioma after peptide treatment; assay type: in vivo, mouse; conditions: tumors of C57BL/6 mice bearing GL261-CHI3L1
Procedure: Mice with neurological deficits or moribund appearance were sacrificed. Tumors were separated and homogenized for 15 min at 37° C. in Collagenase IV Cocktail (3.2 mg/mL collagenase type IV, 2 mg/mL soybean trypsin inhibitor, and 1.0 mg/mL deoxyribonuclease I; Worthington Biochemical). Red blood cells were lysed using ACK lysing buffer (Gibco). Cell suspensions were filtered through 70-μm strainers, centrifuged, and resuspended in cold FACS buffer (DPBS with 1% BSA) for further analysis.
About 3×10^6 cells were used for each staining panel. Cells were incubated with 1.0 μg of TruStain fcX (BioLegend) for 10 min on ice to block Fc receptors, followed by staining with the combination of indicated antibodies. After staining, cells were washed with FACS buffer three times and incubated with Fixation Buffer (BioLegend) at RT for 20 min. Cells were washed with FACS buffer, resuspended in Cyto-Last Buffer (BioLegend), and analyzed by either a BD LSRFortessa or BD FACSAria II SORP. For CyTOF, samples were prepared as described above for flow cytometry. Three pairs of samples (scrambled shRNA vs Chi3l1 KD) with similar tumor sizes were chosen and the staining procedure was followed as previously described (Mitsialis V, et al., 2020). The samples were analyzed on a Helios2 CyTOF system (Fluidigm) at the Longwood Medical Area CyTOF Core. Additional information about flow cytometry antibodies is provided in the Supplementary Material and Methods section.

[1] = system: GL261-CHI3L1 orthotopic tumors; assay: Peptide treatment of GL261-CHI3L1 orthotopic tumors (MRI, survival); conditions: C57BL/6 mice bearing GL261-CHI3L1 orthotopic tumors; 20 μM peptide into brain tumor via guide screw
Procedure: Male and female ICR SCID and C57BL/6 mice (4-6 weeks of age) were purchased from Taconic Biosciences and The Jackson Laboratory, respectively. The intracranial xenograft tumor models were established as previously described (Hu B et al., 2016). Cells in 5 μL DPBS were injected at the following numbers: TS543 vector control or CHI3L1 overexpression (OE), 1×10^4 cells; QPP7 scrambled control or CHI3L1 knockdown (KD), 1×10^5 cells; and GL261 vector control or CHI3L1 OE, 1×10^5 cells. […] For mice treated with peptides, 5 uL of 20 uM SCP or GMP was delivered into the mouse brain every 4 days with a total of seven times.
MRI and bioluminescent imaging of mice were performed at Rangos Research Center Animal Imaging Core. The tumor size of mice detected by MRI was analyzed with ITK-SNAP.
For intracranial xenograft tumor models treated with peptides, mice were implanted with a guide screw prior to intracranial injection. To install the screw, mice were anesthetized by intraperitoneal (IP) injection with ketamine/xylazine solution (1.75 mL of 100 mg/mL ketamine and 0.25 mL of 100 mg/mL xylazine in 8 mL sterile water) at a dosage of 100 μL/20 g body weight. The screw was covered by sealing the skin, and mice were allowed to recover for one week before intracranial implantation. GL261 cells overexpressing CHI3L1 (1×10^5) were injected in 5 μL of DPBS containing 20 μM of either scrambled control peptide (SCP) or Gal3BP mimetic peptide (GMP). SCP (20 μM) or GMP (20 μM) was subsequently given once every 3 days with a total of seven times by intracranial injection via the guide screw.
All mice received general inhalation anesthesia with Isoflurane for in vivo brain imaging. […] Depth of anesthesia was monitored by toe reflex (extension of limbs, spine positioning) and respiration rate. […] Respiration was monitored using a pneumatic sensor placed between the animal bed and the mouse's abdomen, rectal temperature was measured with a fiberoptic sensor, and core temperature was maintained at 36.8±0.2° C. with a feedback-controlled warm air source (SA Instruments). […]

[2] = system: microglial cell line (SIM-A9); assay: Transwell migration assay, microglial cell migration; assay type: cell-based, mouse
Procedure: (§3) Polarized BMDMs were starved by removing FBS for 6 hours. Cells were collected and 2×10^5 cells in 200 μL of IMDM were added into each transwell insert (Millipore, Cat #MCMP24H48). 700 μL of IMDM containing 2% FBS and the indicated recombinant proteins was added to the bottom of the plates. After 14-hour incubation, transwell inserts were stained with HEMA 3 Stain Set (Fisher Scientific). Insert membranes were separated and mounted on glass slides with CYTOSEAL XYL (ThermoFisher) and images were taken by an inverted microscope (Leica DM 2500). For the SIM-A9 cells, the inserts were coated with 10 μg/mL fibronectin overnight in advance of seeding cells.

[3] = system: bone-marrow derived macrophages (BMDMs); assay: Transwell migration assay, BMDM migration; assay type: cell-based, mouse
Procedure: (§4) BMDMs were isolated from male and female C57BL/6 mice as previously described (Ying W et al., 2013). Briefly, femur bones were isolated from mice, and IMDM (ATCC) supplemented with 10% FBS and P/S was used to flush the bone marrow into a petri dish. After 4-6-hour incubation, the floating cells were collected and resuspended in the medium with 20 ng/mL M-CSF (PrproTech). On day 6, the fully differentiated cells were designated as an M0 state. To induce BMDM polarization toward an M1 state, 100 ng/mL LPS (Invitrogen) and 50 ng/mL IFNγ (PrproTech) were added to the M0 cells for 24 hours. To induce BMDM polarization toward an M2 state, 20 ng/mL IL-4 (PrproTech) was added to the M0 cells for 72 hours.
as §3

[4] = system: mouse microglial cell line (SIM-A9); assay: Scratch-wound healing assay, microglial cell migration; assay type: cell-based; conditions: rCHI3L1 0.6 μg/mL, 6 hours
Procedure: (§5) BMDM were polarized to the indicated status (M0, M1, or M2) and seeded in 12-well plates at 80-90% confluency. The cells were switched to the medium without FBS for 6 hours of starvation. Scratches were made using pipettor tips and fresh IMDM with indicated recombinant proteins and/or peptides were added. Images of the scratches were captured at indicated times. For the SIM-A9 scratch-wound healing assay, 12-well plates were coated with 10 μg/mL fibronectin (Sigma-Aldrich) at 37° C. overnight before seeding cells.

[5] = system: bone-marrow derived macrophages (BMDMs); assay: Scratch-wound healing assay, BMDM migration; assay type: cell-based, mouse; conditions: rCHI3L1 0.6 μg/mL; 6 hours
Procedure: as §4, §5

Gal3-Gal3BP interaction, sequence (P17931 2-250 limits assumed): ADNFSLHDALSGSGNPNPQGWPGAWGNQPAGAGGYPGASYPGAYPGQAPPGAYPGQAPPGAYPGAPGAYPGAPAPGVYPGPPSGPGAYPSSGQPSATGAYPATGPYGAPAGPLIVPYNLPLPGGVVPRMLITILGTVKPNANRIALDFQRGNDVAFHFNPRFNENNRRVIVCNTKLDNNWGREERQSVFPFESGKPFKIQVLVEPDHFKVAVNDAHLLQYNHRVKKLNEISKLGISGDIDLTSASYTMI
Gal3-Gal3BP interaction, sequence (P36222 22-383 partner): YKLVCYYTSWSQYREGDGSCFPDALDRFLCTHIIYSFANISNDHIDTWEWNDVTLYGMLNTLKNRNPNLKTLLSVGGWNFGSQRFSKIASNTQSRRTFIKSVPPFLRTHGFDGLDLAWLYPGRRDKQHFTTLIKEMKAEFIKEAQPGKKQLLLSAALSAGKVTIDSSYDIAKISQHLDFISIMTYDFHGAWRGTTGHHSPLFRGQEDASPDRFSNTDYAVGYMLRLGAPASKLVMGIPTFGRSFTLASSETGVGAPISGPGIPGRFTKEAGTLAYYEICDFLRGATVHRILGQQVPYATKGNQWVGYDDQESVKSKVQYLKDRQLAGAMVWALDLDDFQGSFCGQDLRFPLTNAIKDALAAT
Gal3-CHI3L1 interaction, sequence (P17931 2-250 limits assumed): as the sequence (P17931 2-250 limits assumed) above
Gal3-CHI3L1 interaction, sequence (P36222 22-383 partner): as the sequence (P36222 22-383 partner) above

Compound: Cn1c(=O)n(-c2ccc(C(C)(C)C#N)cc2)c2c3cc(-c4cnc5ccccc5c4)ccc3ncc21 [NVP-BEZ235]
CHI3L1 secretion in conditioned medium (CHI3L1 secretion): decreased CHI3L1 secretion in a dose- and time-dependent manner

Compound: Nc1cc(C(F)(F)F)c(-c2cc(N3CCOCC3)nc(N3CCOCC3)n2)cn1 [NVP-BKM120]
CHI3L1 secretion in conditioned medium (CHI3L1 secretion): decreased CHI3L1 secretion in a dose- and time-dependent manner

Gal3-CHI3L1 interaction (Co-IP) (Gal3-CHI3L1 interaction): not Gal3-CHI3L1 interactions
Gal3-Gal3BP interaction (Co-IP) (Gal3-Gal3BP interaction): completely disrupted
Compound: OC[C@H]1O[C@@H](S[C@@H]2O[C@H](CO)[C@H](O)[C@H](n3cc(-c4cccc(F)c4)nn3)[C@H]2O)[C@H](O)[C@@H](n2cc(-c3cccc(F)c3)nn2)[C@H]1O [TD139]

Compound: L1RTRLEETLSSDTSH15 (LRTRLEETLSSDTSH) [SCP, reference compound]
CD4+ cell population (GL261-CHI3L1 glioma): 39.8±4.0%
M2-like TAMs (GL261-CHI3L1 glioma; mean±SEM, P=0.0536): 52.7±3.9%
M1-like TAMs (GL261-CHI3L1 glioma; mean±SEM, P=0.0719): 38.2±6.7%
median survival [1]: 29 days

Compound: rCHI3L1: recombinant CHI3L1 protein
microglial cell migration [2]: not in M0 BMDMs, M1 BMDMs, or microglial cells
M2 BMDM migration [3]: promoted cell migration in M2 BMDMs
microglial cell migration [4]: did not increase cell migration
M0 and M1 BMDM migration [5]: not M0 and M1 BMDMs
M2 BMDM migration [5]: promoted M2 BMDM migration
